Laboratory results: patent publication US20230094952A1, “Method for Culturing Hematopoietic Stem Cells” (Sumitomo Pharma Co., Ltd., priority 2019, published 2023)

Experiments:
mouse HoxB5 = assay: Confirmation test by gene expression of mouse HoxB5 (qRT-PCR); type: cell-based; settings: for mGAPDH Ct value / mHoxB5 Ct value: day 7 of culture; for Ct value difference: mHoxB5 minus mGAPDH
Method: Cells cultured in the presence of artemether were evaluated by gene expression of mouse HoxB5. Cells were cultured in the same manner as in Example 3, and the cells after culture were treated with a Single Cell to CT qRT-PCR kit (manufactured by Life Technologies) according to the instruction of the kit. The cells treated were washed once with PBS, a cell-lysing solution was then added thereto, and the resultant was subjected to RNA extraction followed by reverse transcription reaction for cDNA synthesis, amplified through Taqman Gene Expression Assay in 14 cycles, and diluted with 1×TE buffer (pH 8.0). Real-time PCR was performed with the following Taqman probes at 95° C. for 3 seconds and at 60° C. for 30 seconds in 40 cycles to amplify the sample (HoxbB5: Mm00657672 (manufactured by Thermo Fisher Scientific), Gapdh: Mm99999915-g1 (manufactured by Thermo Fisher Scientific)). All the thermal cycler operations were analyzed by using a QuantStudio 6 (manufactured by Applied Biosystems) (Table 5).
From Table 5, we were able to confirm, by allowing the compound to act, the expression of the long-term hematopoietic stem cell marker HoxB5 in cells on day 7 of culture under culture conditions such that the mouse HoxB5 Ct value was 30 or less and the ACT value was 16 or less.

[1] = test system: mouse long-term hematopoietic stem cells; assay: Combination test with UM171 on mouse long-term hematopoietic stem cells; type: cell-based; settings: n=2
Method: The cells after classification were seeded in a 96-well plate. A cell culture medium was prepared by adding Stem Cell Factor (SCF, manufactured by PeproTech, Inc.) and Thrombopoietin (TPO, manufactured by PeproTech, Inc.) to StemSpan SFEM culture medium (manufactured by […] Technologies Inc.) and added in advance to a cell culture 96-well plate (manufactured by BD Biosciences) at 100 μL/well, and the cells sorted with the FACS Aria II cell sorter (BD Biosciences) were then seeded at 10 cells/well.
The test compounds each in the form of 10 mM DMSO solution were diluted with the cell culture medium to a final concentration of 1 μM, and added to the cells seeded after classification through medium exchange to a final volume of 200 μL/well. Thereafter, the cells were cultured in a CO2 incubator under conditions of 37° C. and 5% CO2 for 1 week.
After culture, the cells were stained with the antibodies for the surface markers c-Kit and Sca-1, Ter-119, B220, CD3, CD4, CD8a, Gr-1, and CD11b, and the ratio and post-growth cell count of a KLS fraction (c-Kit^+, Lin^−, Sca-1^+) or an mCherry-positive fraction given with use of a FACS Aria II cell sorter were analyzed by using FlowJo (BD Biosciences). The mCherry-positive fraction is a cell fraction expressing the Hoxb5 gene, and the KLS fraction is a cell fraction being c-Kit-positive, Lin-negative, and Sca-1-positive, and includes hematopoietic stem cells and multipotent progenitor cells as main components.
A DMSO solution of artemether was adjusted with the cell culture medium to three final concentrations (0.1 μM, 1 μM, 10 μM), and a DMSO solution of UM171 was adjusted with the cell culture medium to four final concentrations (0.1 μM, 0.3 μM, 1 μM, 3 μM), and cell culture was performed at n=2 by the same method as in Example 1. The cell culture and evaluation criteria were the same as those in Example 2.

[2] = artemether 0.1 μM + UM171 0.1 μM
[3] = artemether 0.1 μM + UM171 0.3 μM
[4] = artemether 10 μM + UM171 0.1 μM
[5] = artemether 10 μM + UM171 0.3 μM

For `CO[C@H]1O[C@@H]2O[C@@]3(C)CC[C@H]4[C@H](C)CC[C@@H]([C@H]1C)[C@@]24OO3` [Example 1-30, artemether, reference compound], the “mGAPDH Ct value” (mouse HoxB5; compound 0.03 μM) was 13.12, the “mHoxB5 Ct value” (mouse HoxB5; compound 0.03 μM) was 30.72 and the “mGAPDH Ct value” (mouse HoxB5; compound 0.1 μM) was 13.23. The “mHoxB5 Ct value” (mouse HoxB5; compound 0.1 μM) was 30.57, the “mGAPDH Ct value” (mouse HoxB5; compound 0.3 μM) was 14.47 and the “mHoxB5 Ct value” (mouse HoxB5; compound 0.3 μM) was 28.79. The “mGAPDH Ct value” (mouse HoxB5; compound 1 μM) was 13.02, the “mHoxB5 Ct value” (mouse HoxB5; compound 1 μM) was 31.18 and the “mGAPDH Ct value” (mouse HoxB5; compound 3 μM) was 13.90. The “mHoxB5 Ct value” (mouse HoxB5; compound 3 μM) was 28.99, the “mGAPDH Ct value” (mouse HoxB5; compound 10 μM) was 17.68 and the “mHoxB5 Ct value” (mouse HoxB5; compound 10 μM) was 27.62. It also gave a Ct value difference (mouse HoxB5; compound 0.03 μM) of 17.60, a Ct value difference (mouse HoxB5; compound 0.1 μM) of 17.34 and a Ct value difference (mouse HoxB5; compound 0.3 μM) of 14.31. For the same compound, the Ct value difference (mouse HoxB5; compound 1 μM) was 18.16, the Ct value difference (mouse HoxB5; compound 3 μM) was 15.10 and the Ct value difference (mouse HoxB5; compound 10 μM) was 9.94. For the same compound, the KLS-positive rate [1, 2] was 52.0%, the Viable cell count [1, 2] was 430.0 cell and the mCherry-positive rate [1, 2] was 51.8%. The KLS-positive rate [1, 3] was 42.0%, the Viable cell count [1, 3] was 257.0 cell and the mCherry-positive rate [1, 3] was 78.1%. For the same compound, the KLS-positive rate ([1]; artemether 0.1 μM + UM171 1 μM) was 93.4%, the Viable cell count ([1]; artemether 0.1 μM + UM171 1 μM) was 28.5 cell and the mCherry-positive rate ([1]; artemether 0.1 μM + UM171 1 μM) was 100.0%. For the same compound, the KLS-positive rate ([1]; artemether 0.1 μM + UM171 3 μM) was 60.6%, the Viable cell count ([1]; artemether 0.1 μM + UM171 3 μM) was 101.5 cell and the mCherry-positive rate ([1]; artemether 0.1 μM + UM171 3 μM) was 82.4%. It also gave a KLS-positive rate ([1]; artemether 1 μM + UM171 0.1 μM) of 33.1%, a Viable cell count ([1]; artemether 1 μM + UM171 0.1 μM) of 269.0 cell and a mCherry-positive rate ([1]; artemether 1 μM + UM171 0.1 μM) of 96.3%. For the same compound, the KLS-positive rate ([1]; artemether 1 μM + UM171 0.3 μM) was 48.6%, the Viable cell count ([1]; artemether 1 μM + UM171 0.3 μM) was 151.0 cell and the mCherry-positive rate ([1]; artemether 1 μM + UM171 0.3 μM) was 99.1%. It also gave a KLS-positive rate ([1]; artemether 1 μM + UM171 1 μM) of 93.7%, a Viable cell count ([1]; artemether 1 μM + UM171 1 μM) of 23.0 cell and a mCherry-positive rate ([1]; artemether 1 μM + UM171 1 μM) of 100.0%. For the same compound, the KLS-positive rate ([1]; artemether 1 μM + UM171 3 μM) was 67.3%, the Viable cell count ([1]; artemether 1 μM + UM171 3 μM) was 23.5 cell and the mCherry-positive rate ([1]; artemether 1 μM + UM171 3 μM) was 100.0%. The KLS-positive rate [1, 4] was 56.7%, the Viable cell count [1, 4] was 122.0 cell and the mCherry-positive rate [1, 4] was 99.6%. The KLS-positive rate [1, 5] was 91.1%, the Viable cell count [1, 5] was 38.0 cell and the mCherry-positive rate [1, 5] was 100.0%. It also gave a KLS-positive rate ([1]; artemether 10 μM + UM171 1 μM) of 95.9%, a Viable cell count ([1]; artemether 10 μM + UM171 1 μM) of 9.5 cell and a mCherry-positive rate ([1]; artemether 10 μM + UM171 1 μM) of 100.0%. The KLS-positive rate ([1]; artemether 10 μM + UM171 3 μM) was 94.7%, the Viable cell count ([1]; artemether 10 μM + UM171 3 μM) was 19.0 cell and the mCherry-positive rate ([1]; artemether 10 μM + UM171 3 μM) was 96.9%.
